In paper PMC11170107, “Development of a new hazard scoring system in primary neuronal cell cultures for drug-induced acute neuronal toxicity identification in early drug discovery” (Frontiers in Pharmacology, 2024):
“Also recorded” adds a separate entry of the source. Where two headings read alike, the source gives them in different places.

Assays:
[1] = established from VigiBase, SIDER, Elsevier drug information and FDA prescribing information
[2] = Supplementary Table S1; cited from earlier work
[3] = WHO adverse drug reactions VigiBase; ref Kumlien and Lundberg, 2010; cited from earlier work
[4] = seizure ADR frequency in SIDER; ref Campillos et al., 2008; Kuhn et al., 2010; cited from earlier work
[5] = ref National library of medicine, Daylimed; cited from earlier work
[6] = system: rat primary cortical neurons; experiment: MEA hazard scoring in rat primary cortical neuronal cultures; details: for hazard classification in the hazard scoring system: rat primary neurons on MEA; for Area.Under.Cross.Correlation Lower.TI / Area.Under.Cross.Correlation Upper.TI / Burst.Duration...Avg.(s. Lower.TI) / Burst.Duration...Avg.(s. Upper.TI) / Mean.Firing.Rate..Hz. Lower.TI / Mean.Firing.Rate..Hz. Upper.TI / Median.Mean.ISI Lower.TI / Median.Mean.ISI Upper.TI: statistical tolerance interval of the ΔΔ% effect, One-sided interval
Description: (§1) At DIV28, spontaneous neuronal activity obtained for 30 min in culture solution was defined as the baseline.
(§2) Data analysis was captured using AxIs suite software (Axion Biosystems Inc., version 3.6.2) and further analyzed using GraphPad Prism (version 9.00; GraphPad Software Inc., San Diego, CA). […] An active well should have more than 40% active electrodes. All wells below this threshold were discarded upon these quality criteria. For the downstream statistical analysis, the data on each MEA parameter was first expressed as the ratio of exposed wells (percentage change between baseline and the treatment) and then normalized to the average of the control within the same plate. i.e., Baseline corrected ratios of n= 7 or eight wells were averaged per condition. Each well of the MEA served as its own control, and the changes in the electrical activity elicited by the treatments were expressed as a percentage of that control activity and normalized to the wells treated with the vehicle control dimethyl sulfoxide (DMSO). […] Differences were determined using the non-parametric Wilcoxon Mann Whitney test; p-values below 0.05 were considered significant. Data are expressed as means ± S.E.M.
(§3) Thereafter, based on the effects of vehicles and positive controls, we determined the cut-off points between the different effect zones according to the key parameters selected as described in the previous subsection. The zones were defined as follows. The “no effect” zone reflects parameter changes that are most likely within vehicle variability. The “mild” and “strong” zones are differentiated bidirectionally showing mild and strong effects.
(§4) The respective hazard class was determined by a cumulative scoring of individual parameters using a scoring matrix, which was based on the following three fundamental components: (1) selection of the six key relevant parameters, (2) defining the cutoffs for the level of effect, and (3) defining weighted points per parameter for the level of hazard potential. The scoring matrix concluded with the addition of a weighted point algorithm to discriminate distinct degrees of neuronal hazard. […] The weighted points were defined on the importance of a parameter (and the direction of effect), as well as the identification of an expected hazard for different pharmacological modes of action. The overall hazard score is derived from the sum of all weighted parameters, which could be converted into a specific hazard label. The weighted points and total score range associated with the various hazard labels were optimized using an iterative process.

[7] = system: rat primary cortical neurons
Description: as §1, §2, §3, §4

N=C(N)NC(=O)c1nc(Cl)c(N)nc1N [Amiloride]
Classification* (degree of seizure risk) [1]: No risk | Free Cmax highest [2]: 74.6 nM | Percentage seizures of total number of ADRs [3]: 0.3506% | SIDER ADR on-/off-label [4]: not found on label | FDA prescription information at therapeutic dose (Convulsion/ Seizure/Lower the seizure threshold/withdrawal) [5]: not found on label | hazard classification in the hazard scoring system [6]: high seizure risk | firing rate (weighted mean firing rate) in MEA recordings ([6]; rodent cortical neurons in vitro): increase of activity

O=C(CCCl)NCc1ccccc1 [Beclamide]
Classification* (degree of seizure risk) [1]: Low risk | Percentage seizures of total number of ADRs [3]: 0% | hazard classification in the hazard scoring system [6]: high hazard

CN1C(=O)CN=C(c2ccccc2)c2cc(Cl)ccc21 [Diazepam]
hazard score group in Figure 3 [7]: Neuro Active to high hazard | FDA prescription information at therapeutic dose (Convulsion/ Seizure/Lower the seizure threshold/withdrawal) [5]: On label

CN1C[C@H](C(=O)N[C@]2(C)O[C@@]3(O)[C@@H]4CCCN4C(=O)[C@H](Cc4ccccc4)N3C2=O)C=C2c3cccc4[nH]cc(c34)C[C@H]21 [Ergotamine]
hazard score group in Figure 3 [7]: Neuro Active to high hazard | Classification* (degree of seizure risk) [1]: Risk | Free Cmax highest [2]: 0.4 nM | Percentage seizures of total number of ADRs [3]: 0.8818% | SIDER ADR on-/off-label [4]: not found on label | FDA prescription information at therapeutic dose (Convulsion/ Seizure/Lower the seizure threshold/withdrawal) [5]: not found on label

NCC1(CC(=O)O)CCCCC1 [Gabapentin]
hazard score group in Figure 3 [7]: Neuro Active to high hazard | Classification* (degree of seizure risk) [1]: Risk | Free Cmax highest [2]: 2080 nM | Percentage seizures of total number of ADRs [3]: 1.766% | SIDER ADR on-/off-label [4]: postmarketing | FDA prescription information at therapeutic dose (Convulsion/ Seizure/Lower the seizure threshold/withdrawal) [5]: On label

NCC(=O)O [Glycine]
hazard score group in Figure 3 [7]: Neuro Active to hazard | SIDER ADR on-/off-label [4]: no frequency information | FDA prescription information at therapeutic dose (Convulsion/ Seizure/Lower the seizure threshold/withdrawal) [5]: not found on label

CNC1(c2ccccc2Cl)CCCCC1=O (stereo not shown) [Ketamine]
Classification* (degree of seizure risk) [1]: Low risk | Free Cmax highest [2]: 1740 nM | Percentage seizures of total number of ADRs [3]: 1.967% | SIDER ADR on-/off-label [4]: no frequency information | FDA prescription information at therapeutic dose (Convulsion/ Seizure/Lower the seizure threshold/withdrawal) [5]: not found on label

Nc1nnc(-c2cccc(Cl)c2Cl)c(N)n1 [Lamotrigine]
Classification* (degree of seizure risk) [1]: Risk | Free Cmax highest [2]: 8600 nM | Percentage seizures of total number of ADRs [3]: 7.325% | SIDER ADR on-/off-label [4]: 1.9% - 4% | FDA prescription information at therapeutic dose (Convulsion/ Seizure/Lower the seizure threshold/withdrawal) [5]: On label

O=C1Nc2ccc(Cl)cc2C(c2ccccc2Cl)=NC1O (stereo not shown) [Lorazepam]
Classification* (degree of seizure risk) [1]: Risk | Free Cmax highest [2]: 22 nM | Percentage seizures of total number of ADRs [3]: 1.949% | SIDER ADR on-/off-label [4]: postmarketing — 0.769% | FDA prescription information at therapeutic dose (Convulsion/ Seizure/Lower the seizure threshold/withdrawal) [5]: on label

CN1CCN(C2=Nc3ccccc3Oc3ccc(Cl)cc32)CC1 [Loxapine]
Classification* (degree of seizure risk) [1]: Risk | Free Cmax highest [2]: 44 nM | Percentage seizures of total number of ADRs [3]: 1.962% | SIDER ADR on-/off-label [4]: no frequency information | FDA prescription information at therapeutic dose (Convulsion/ Seizure/Lower the seizure threshold/withdrawal) [5]: On label

NC(=O)C[S+]([O-])C(c1ccccc1)c1ccccc1 (stereo not shown) [Modafinil]
Classification* (degree of seizure risk) [1]: Risk | Free Cmax highest [2]: 19600 nM | Percentage seizures of total number of ADRs [3]: 1.739% | SIDER ADR on-/off-label [4]: postmarketing | FDA prescription information at therapeutic dose (Convulsion/ Seizure/Lower the seizure threshold/withdrawal) [5]: not found on label

NCc1cc(=O)[nH]o1 [Muscimol]
Classification* (degree of seizure risk) [1]: Risk | Area.Under.Cross.Correlation Lower.TI [6]: -100 | Area.Under.Cross.Correlation Upper.TI [6]: -21.99 | Burst.Duration...Avg.(s. Lower.TI) [6]: -100 | Burst.Duration...Avg.(s. Upper.TI) [6]: 465.5 | Mean.Firing.Rate..Hz. Lower.TI [6]: -100 | Mean.Firing.Rate..Hz. Upper.TI [6]: -23.34 | Median.Mean.ISI Lower.TI [6]: -100 | Median.Mean.ISI Upper.TI [6]: 1.885

CN1CCC[C@H]1c1cccnc1 [Nicotine]
hazard classification in the hazard scoring system [7]: non-neuroactive | hazard score group in Figure 3 [7]: Non-Neuro Active | Free Cmax highest [2]: 180 nM | SIDER ADR on-/off-label [4]: not found on label | FDA prescription information at therapeutic dose (Convulsion/ Seizure/Lower the seizure threshold/withdrawal) [5]: not found on label

CCCC(C)C1(CC)C(=O)NC(=O)NC1=O (stereo not shown) [Pentobarbital]
hazard score group in Figure 3 [7]: Neuro Active to hazard | Classification* (degree of seizure risk) [1]: Risk | Free Cmax highest [2]: 5100 nM | Percentage seizures of total number of ADRs [3]: 3.3557% | SIDER ADR on-/off-label [4]: not found on label | FDA prescription information at therapeutic dose (Convulsion/ Seizure/Lower the seizure threshold/withdrawal) [5]: not found on label

N#Cc1ccccc1-c1cc(-c2ccccn2)cn(-c2ccccc2)c1=O [Perampanel]
Classification* (degree of seizure risk) [1]: Low risk | Free Cmax highest [2]: 163 nM | Percentage seizures of total number of ADRs [3]: 7.31% | SIDER ADR on-/off-label [4]: not found on label | FDA prescription information at therapeutic dose (Convulsion/ Seizure/Lower the seizure threshold/withdrawal) [5]: not found on label | hazard classification in the hazard scoring system [6]: hazards; also recorded: high hazard

CCOC(=O)C1(c2ccccc2)CCN(C)CC1 [Pethidine]
hazard score group in Figure 3 [7]: Neuro Active to hazard | Free Cmax highest [2]: 250 nM | SIDER ADR on-/off-label [4]: no frequency information

CC(C)C[C@H](CN)CC(=O)O [Pregabalin]
hazard score group in Figure 3 [7]: Non-Neuro Active | Percentage seizures of total number of ADRs [3]: 0.8034%

C[N+](C)(C)CCOC(=O)CCC(=O)OCC[N+](C)(C)C [Succinylcholine]
Classification* (degree of seizure risk) [1]: No risk | Free Cmax highest [2]: 170 nM | Percentage seizures of total number of ADRs [3]: 0.792% | SIDER ADR on-/off-label [4]: not found on label | FDA prescription information at therapeutic dose (Convulsion/ Seizure/Lower the seizure threshold/withdrawal) [5]: not found on label

CNS(=O)(=O)Cc1ccc2[nH]cc(CCN(C)C)c2c1 [Sumatriptan]
Classification* (degree of seizure risk) [1]: Risk | Free Cmax highest [2]: 388 nM | Percentage seizures of total number of ADRs [3]: 0.8281% | SIDER ADR on-/off-label [4]: rare (<0.1%) | FDA prescription information at therapeutic dose (Convulsion/ Seizure/Lower the seizure threshold/withdrawal) [5]: On label

Cc1ccc(C(=O)c2cc(O)c(O)c([N+](=O)[O-])c2)cc1 [Tolcapone]
Classification* (degree of seizure risk) [1]: No risk | Free Cmax highest [2]: 10 nM | Percentage seizures of total number of ADRs [3]: 0.8264% | SIDER ADR on-/off-label [4]: not found on label | FDA prescription information at therapeutic dose (Convulsion/ Seizure/Lower the seizure threshold/withdrawal) [5]: not found on label

Cc1ccc(Nc2nccc(N(C)c3ccc4c(C)n(C)nc4c3)n2)cc1S(N)(=O)=O [pazopanib]
Classification* (degree of seizure risk) [1]: Risk | Free Cmax highest [2]: 1330 nM | Percentage seizures of total number of ADRs [3]: 0.4565% | SIDER ADR on-/off-label [4]: not found on label | FDA prescription information at therapeutic dose (Convulsion/ Seizure/Lower the seizure threshold/withdrawal) [5]: not found on label

Picrotoxin
Classification* (degree of seizure risk) [1]: Risk | Area.Under.Cross.Correlation Lower.TI [6]: -46.52 | Area.Under.Cross.Correlation Upper.TI [6]: 62.45 | Burst.Duration...Avg.(s. Lower.TI) [6]: -2.013 | Burst.Duration...Avg.(s. Upper.TI) [6]: 280.4 | Mean.Firing.Rate..Hz. Lower.TI [6]: -10.62 | Mean.Firing.Rate..Hz. Upper.TI [6]: 76.43 | Median.Mean.ISI Lower.TI [6]: -29.71 | Median.Mean.ISI Upper.TI [6]: 0.6132
